Assay results published in ChEMBL document CHEMBL5260828, “Amphiphilic glycoconjugates as potential anti-cancer chemotherapeutics” (Eur J Med Chem, 2018).
Values after ≈ are worked out from the molar mass of the structure shown. One block for each compound: values may come before it.

What was measured:
[1] = test system: HeLa; assay: Cytotoxicity against human HeLa cells assessed as inhibition of cell proliferation incubated for 72 hrs by MTT assay; assay type: functional, cell-based
[2] = test system: HL-60; assay: Cytotoxicity against human HL-60 cells assessed as inhibition of cell proliferation incubated for 72 hrs by MTT assay; assay type: functional, cell-based; settings: HL-60, 72 h
[3] = target: Fatty acid synthase (Gallus gallus, UniProt P12276); assay: Inhibition of Fatty acid synthase in chicken liver using [3H]-acetyl CoA as substrate preincubated for 30 mins followed by substrate addition and measured after 10 mins in presence of NADPH by scintillation counting analysis; assay type: tissue-based
Fatty acid synthase, sequence (P12276 whole entry): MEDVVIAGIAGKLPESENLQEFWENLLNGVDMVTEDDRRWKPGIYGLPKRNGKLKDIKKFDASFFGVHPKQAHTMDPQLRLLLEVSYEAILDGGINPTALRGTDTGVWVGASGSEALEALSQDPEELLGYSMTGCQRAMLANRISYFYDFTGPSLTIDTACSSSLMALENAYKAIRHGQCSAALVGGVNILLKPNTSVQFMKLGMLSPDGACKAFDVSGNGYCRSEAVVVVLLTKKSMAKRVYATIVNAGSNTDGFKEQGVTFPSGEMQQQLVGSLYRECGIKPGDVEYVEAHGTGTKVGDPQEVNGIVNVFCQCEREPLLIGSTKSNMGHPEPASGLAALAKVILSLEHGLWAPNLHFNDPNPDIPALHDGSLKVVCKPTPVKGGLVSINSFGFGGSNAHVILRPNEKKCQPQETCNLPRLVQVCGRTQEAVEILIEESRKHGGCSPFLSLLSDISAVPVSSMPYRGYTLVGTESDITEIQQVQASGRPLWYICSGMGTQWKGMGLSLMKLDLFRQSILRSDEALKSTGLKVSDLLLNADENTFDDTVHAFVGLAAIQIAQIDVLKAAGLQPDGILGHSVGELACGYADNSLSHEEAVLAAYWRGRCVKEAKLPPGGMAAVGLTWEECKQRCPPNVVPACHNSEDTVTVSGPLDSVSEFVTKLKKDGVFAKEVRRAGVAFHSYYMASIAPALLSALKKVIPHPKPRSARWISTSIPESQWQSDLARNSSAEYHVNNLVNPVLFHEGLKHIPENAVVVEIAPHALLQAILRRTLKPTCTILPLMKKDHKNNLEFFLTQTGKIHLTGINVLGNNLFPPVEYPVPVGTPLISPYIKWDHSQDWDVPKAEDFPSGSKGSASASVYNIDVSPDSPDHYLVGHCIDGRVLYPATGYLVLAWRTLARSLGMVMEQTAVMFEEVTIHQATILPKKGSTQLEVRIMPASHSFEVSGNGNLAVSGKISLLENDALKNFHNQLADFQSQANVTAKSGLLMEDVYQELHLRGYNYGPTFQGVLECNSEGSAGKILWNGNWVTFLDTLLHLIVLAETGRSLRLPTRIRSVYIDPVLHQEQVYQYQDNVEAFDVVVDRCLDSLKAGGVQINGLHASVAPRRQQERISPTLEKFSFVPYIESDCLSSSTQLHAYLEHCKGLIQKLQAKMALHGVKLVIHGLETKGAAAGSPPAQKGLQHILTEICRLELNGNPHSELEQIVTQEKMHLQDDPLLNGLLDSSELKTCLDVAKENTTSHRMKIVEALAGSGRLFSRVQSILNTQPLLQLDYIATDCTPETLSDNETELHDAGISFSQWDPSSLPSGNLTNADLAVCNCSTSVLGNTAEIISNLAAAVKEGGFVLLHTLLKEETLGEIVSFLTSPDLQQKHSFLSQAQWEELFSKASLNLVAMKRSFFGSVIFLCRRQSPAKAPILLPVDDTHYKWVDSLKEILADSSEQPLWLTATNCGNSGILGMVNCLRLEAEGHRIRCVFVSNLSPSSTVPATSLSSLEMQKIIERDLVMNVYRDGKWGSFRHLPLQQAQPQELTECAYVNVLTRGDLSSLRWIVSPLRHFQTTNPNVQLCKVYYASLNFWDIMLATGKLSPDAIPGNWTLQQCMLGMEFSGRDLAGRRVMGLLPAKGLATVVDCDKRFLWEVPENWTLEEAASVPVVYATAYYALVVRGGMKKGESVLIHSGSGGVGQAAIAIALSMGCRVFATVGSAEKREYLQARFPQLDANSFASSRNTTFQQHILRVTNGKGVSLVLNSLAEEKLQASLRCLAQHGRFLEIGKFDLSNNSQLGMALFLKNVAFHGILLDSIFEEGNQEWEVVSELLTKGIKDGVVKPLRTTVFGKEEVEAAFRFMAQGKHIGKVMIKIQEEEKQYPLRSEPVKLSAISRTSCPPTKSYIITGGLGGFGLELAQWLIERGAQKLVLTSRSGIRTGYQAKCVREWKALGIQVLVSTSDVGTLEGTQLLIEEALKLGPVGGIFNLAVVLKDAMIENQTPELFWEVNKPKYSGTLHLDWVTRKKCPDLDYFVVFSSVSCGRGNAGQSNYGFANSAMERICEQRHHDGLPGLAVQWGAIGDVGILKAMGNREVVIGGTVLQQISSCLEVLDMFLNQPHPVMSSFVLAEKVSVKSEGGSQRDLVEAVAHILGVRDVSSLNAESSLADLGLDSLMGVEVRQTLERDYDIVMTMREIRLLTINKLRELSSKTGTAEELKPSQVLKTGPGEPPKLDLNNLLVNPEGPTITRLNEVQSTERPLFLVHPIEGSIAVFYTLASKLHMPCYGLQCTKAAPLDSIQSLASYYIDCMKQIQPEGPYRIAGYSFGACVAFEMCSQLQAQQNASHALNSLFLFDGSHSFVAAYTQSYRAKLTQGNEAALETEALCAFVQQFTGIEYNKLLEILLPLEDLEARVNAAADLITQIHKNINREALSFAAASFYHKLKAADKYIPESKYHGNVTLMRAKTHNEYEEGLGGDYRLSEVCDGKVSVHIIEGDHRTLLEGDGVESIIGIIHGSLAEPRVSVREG

[4] = test system: HCT-116; assay: Cytotoxicity against human HCT-116 cells assessed as cell growth inhibition incubated for 72 hrs by celltiter 96 aqueous cell proliferation assay; assay type: functional, cell-based; settings: HCT-116, 72 h
[5] = target: RAC-alpha serine/threonine-protein kinase (Homo sapiens, UniProt P31749); assay: Inhibition of AKT1 (unknown origin) in presence of ATP by ELISA
RAC-alpha serine/threonine-protein kinase, sequence (P31749 whole entry): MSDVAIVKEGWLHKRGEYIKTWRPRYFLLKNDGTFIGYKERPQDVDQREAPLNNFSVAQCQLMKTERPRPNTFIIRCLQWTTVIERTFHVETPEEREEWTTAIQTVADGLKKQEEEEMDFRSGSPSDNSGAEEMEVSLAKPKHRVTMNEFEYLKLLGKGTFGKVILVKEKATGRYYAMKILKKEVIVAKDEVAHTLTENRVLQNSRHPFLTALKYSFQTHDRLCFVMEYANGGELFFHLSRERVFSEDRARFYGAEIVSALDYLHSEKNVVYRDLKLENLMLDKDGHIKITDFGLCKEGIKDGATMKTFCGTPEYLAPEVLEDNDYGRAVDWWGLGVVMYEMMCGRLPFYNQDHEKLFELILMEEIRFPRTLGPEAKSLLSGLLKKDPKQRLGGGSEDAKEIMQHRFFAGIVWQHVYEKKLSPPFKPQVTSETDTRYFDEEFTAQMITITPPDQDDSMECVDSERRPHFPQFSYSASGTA

[6] = test system: MDA-MB-231; assay: Cytotoxicity against human MDA-MB-231 cells assessed as reduction in cell viability incubated for 48 hrs by MTS assay; assay type: functional, cell-based
[7] = test system: MIA PaCa-2; assay: Cytotoxicity against human MIA PaCa-2 cells assessed as reduction in cell viability incubated for 48 hrs by MTS assay; assay type: functional, cell-based
[8] = test system: PC-3; assay: Cytotoxicity against human PC-3 cells assessed as reduction in cell viability incubated for 48 hrs by MTS assay; assay type: functional, cell-based
[9] = test system: JIMT-1; assay: Cytotoxicity against human JIMT-1 cells assessed as reduction in cell viability incubated for 48 hrs by MTS assay; assay type: functional, cell-based
[10] = test system: DU-145; assay: Cytotoxicity against human DU-145 cells assessed as reduction in cell viability incubated for 48 hrs by MTS assay; assay type: functional, cell-based
[11] = test system: BT-474; assay: Cytotoxicity against human BT-474 cells assessed as reduction in cell viability incubated for 48 hrs by MTS assay; assay type: functional, cell-based
[12] = test system: K562; assay: Cytotoxicity against human K562 cells; assay type: functional, cell-based
[13] = test system: A549; assay: Cytotoxicity against human A549 cells incubated for 72 hrs by MTT assay; assay type: functional, cell-based; settings: A549, 72 h
[14] = test system: HeLa; assay: Cytotoxicity against human HeLa cells incubated for 48 hrs by MTT assay; assay type: functional, cell-based
[15] = test system: MCF7; assay: Cytotoxicity against human MCF7 cells incubated for 48 hrs by MTT assay; assay type: functional, cell-based; settings: MCF7, 48 h
[16] = test system: A549; assay: Cytotoxicity against human A549 cells incubated for 48 hrs by MTT assay; assay type: functional, cell-based; settings: A549, 48 h
[17] = test system: SGC-7901; assay: Cytotoxicity against human SGC-7901 cells incubated for 48 hrs by MTT assay; assay type: functional, cell-based; settings: SGC-7901, 48 h
[18] = test system: HepG2; assay: Cytotoxicity against human HepG2 cells incubated for 48 hrs by MTT assay; assay type: functional, cell-based; settings: HepG2, 48 h

SMILES: C/C=C/C/C(C)=C\[C@H]1C/C=C/C=C/C[C@H](C)/C=C(\C)[C@@H](OC)C/C=C/[C@@H](O)CC(=O)O1
- IC50 [1]: 0.049 µM
- IC50 [2]: 0.03 µM

- IC50 [3]: 15.6 µM
SMILES: CC/C=C\C/C=C\C/C=C\CCCCCCCC(=O)OC[C@H](CO[C@@H]1O[C@H](CO[C@H]2O[C@H](CO)[C@H](O)[C@H](O)[C@H]2O)[C@H](O)[C@H](O)[C@H]1O)OC(=O)CCCCCCCCCCCCCCCCC

SMILES: CO[C@@H]1[C@H](O[C@H]2C[C@]3(O)O[C@H]([C@@H]2C)[C@H](C)[C@H](OC)/C=C(\C)C[C@H](/C=C/C#C[C@H]2C[C@@H]2Cl)OC(=O)[C@H]3C)O[C@@H](C)[C@H]2NC(=O)O[C@]21C
- IC50 [4]: 30 µM

- IC50 [5]: > 100 µM
SMILES: CCCCCCCCCCCCCCCCCC(=O)OCC(COC(=O)CCCCCCCCCCCCCCCCC)O[C@@H]1O[C@H](C(=O)O)[C@@H](O)[C@H](O)[C@H]1O

SMILES: CCCCCCCCCCCCCCCCOC[C@H](CO[C@H]1O[C@H](CNC(=O)CCCc2ccc(N(CCCl)CCCl)cc2)[C@@H](O)[C@H](O)[C@H]1N)OC
- IC50 ([6]; MDA-MB-231, 48 h): 6 µM
- IC50 ([7]; MIA PaCa-2, 48 h): 6 µM
- IC50 ([8]; PC-3, 48 h): 6 µM
- IC50 ([9]; JIMT-1, 48 h): 6 µM
- IC50 ([10]; DU-145, 48 h): 6 µM
- IC50 ([11]; BT-474, 48 h): 6 µM

- IC50 [3]: 15.6 µM
SMILES: CC/C=C\C/C=C\C/C=C\CCCCCCCC(=O)OC[C@H](CO[C@@H]1O[C@H](CO[C@H]2O[C@H](CO)[C@H](O)[C@H](O)[C@H]2O)[C@H](O)[C@H](O)[C@H]1O)OC(=O)CCCCCCCCCCCCCCCCCCC

SMILES: CC(=O)OC[C@H]1O[C@@H](Oc2cc(C)c(O)cc2C/C=C(\C)CC/C=C(\C)C[C@H](C=C(C)C)OC(C)=O)[C@H](O)[C@@H](OC(C)=O)[C@H]1OC(C)=O
- IC50 [12]: 3.1 µg/mL (≈ 4.59 µM)

- IC50 [3]: 15.6 µM
SMILES: CC/C=C\C/C=C\C/C=C\CCCCCCCC(=O)O[C@H](COC(=O)CCCCCCCCCCCCCCC)CO[C@@H]1O[C@H](CO[C@H]2O[C@H](CO)[C@H](O)[C@H](O)[C@H]2O)[C@H](O)[C@H](O)[C@H]1O

SMILES: CCCCCCCCCCCCCCCCOC[C@H](CO[C@@H]1O[C@H](CN)[C@@H](O)[C@H](O)[C@H]1N)OC
- CC50 ([6]; MDA-MB-231, time 48 hrs): 3 µM
- CC50 ([7]; MIA PaCa-2, time 48 hrs): 3.5 µM
- CC50 ([8]; PC-3, time 48 hrs): 3.5 µM
- CC50 ([9]; JIMT-1, time 48 hrs): 3.5 µM
- CC50 ([10]; DU-145, time 48 hrs): 5.2 µM
- CC50 ([11]; BT-474, time 48 hrs): 7.5 µM

SMILES: CO[C@@H]1/C=C(\C)C[C@H](/C=C/C=C/C#C[C@@H]2C[C@H]2Cl)OC(=O)C[C@]2(O)C[C@H](O[C@@H]3O[C@@H](C)[C@H]4NC(=O)O[C@@]4(C)[C@H]3OC)[C@H](C)[C@@H](O2)[C@@H]1C
- IC50 [4]: 61.9 µM

SMILES: C/C=C/C/C(C)=C\[C@H]1C/C=C/C=C/C[C@H](C)/C=C(\C)[C@@H](OC)CCC[C@@H](O)CC(=O)O1
- IC50 [1]: 0.046 µM
- IC50 [2]: 0.024 µM

- IC50 [3]: 15.6 µM
SMILES: CCCCCCCCCCCCCCCCCCCC(=O)O[C@H](COC(=O)CCCCCCCCCCCCCCC)CO[C@@H]1O[C@H](CO[C@H]2O[C@H](CO)[C@H](O)[C@H](O)[C@H]2O)[C@H](O)[C@H](O)[C@H]1O

SMILES: CCCCCCCCCCCCC(=O)OCc1cn(C[C@H]2O[C@H](OC)[C@H](O)[C@@H](O)[C@H]2O)nn1
- IC50 [13]: 21 µM

SMILES: CO[C@@H]1/C=C(\C)C[C@H](/C=C/C#C[C@H]2C[C@@H]2Cl)OC(=O)[C@@H](C)[C@]2(O)C[C@H](O[C@@H]3O[C@@H](C)[C@H](O)[C@@](C)(O)[C@H]3O[C@@H]3O[C@@H](C)[C@H](O)[C@@](C)(O)[C@H]3OC)[C@@H](C)[C@@H](O2)[C@@H]1C
- IC50 [4]: 10.2 µM

SMILES: CCCCCCCCCCCCCC(=O)OCc1cn(C[C@H]2O[C@H](OC)[C@H](O)[C@@H](O)[C@H]2O)nn1
- IC50 [13]: 21 µM

SMILES: CCCCC[C@@H]1CCCCCCCCCC(=O)O[C@H]2[C@@H](O)[C@H](O[C@H]3[C@H](O1)O[C@H](CO)[C@@H](O)[C@@H]3O)O[C@@H](C)[C@@H]2O[C@@H]1O[C@@H](C)[C@H](O[C@@H]2O[C@@H](C)[C@H](OC(=O)[C@@H](C)CC)[C@@H](OC(=O)/C=C/c3ccccc3)[C@H]2O)[C@@H](O[C@@H]2O[C@@H](C)[C@H](O)[C@@H](O)[C@H]2O)[C@H]1OC(=O)[C@@H](C)CC
- IC50 [14]: 4.28 µM
- IC50 [15]: 4.28 µM
- IC50 [16]: 4.28 µM
- IC50 [17]: 4.28 µM
- IC50 [18]: 4.28 µM
